Experimental data reported in patent US9533952B2, “N-prop-2-ynyl carboxamide derivatives and their use as TRPA1 antagonists” (Orion Corporation, priority 2012, dated 2017).

The compounds below were run against TRPA1 (Homo sapiens, UniProt O75762) (assay: Determination of TRPA1 activity in vitro (TRPA1 antagonism in vitro)). Conditions: procedure of Wei et al., Anesthesiology 111 (2009) 147-154.
Sequence of TRPA1 (O75762 whole entry): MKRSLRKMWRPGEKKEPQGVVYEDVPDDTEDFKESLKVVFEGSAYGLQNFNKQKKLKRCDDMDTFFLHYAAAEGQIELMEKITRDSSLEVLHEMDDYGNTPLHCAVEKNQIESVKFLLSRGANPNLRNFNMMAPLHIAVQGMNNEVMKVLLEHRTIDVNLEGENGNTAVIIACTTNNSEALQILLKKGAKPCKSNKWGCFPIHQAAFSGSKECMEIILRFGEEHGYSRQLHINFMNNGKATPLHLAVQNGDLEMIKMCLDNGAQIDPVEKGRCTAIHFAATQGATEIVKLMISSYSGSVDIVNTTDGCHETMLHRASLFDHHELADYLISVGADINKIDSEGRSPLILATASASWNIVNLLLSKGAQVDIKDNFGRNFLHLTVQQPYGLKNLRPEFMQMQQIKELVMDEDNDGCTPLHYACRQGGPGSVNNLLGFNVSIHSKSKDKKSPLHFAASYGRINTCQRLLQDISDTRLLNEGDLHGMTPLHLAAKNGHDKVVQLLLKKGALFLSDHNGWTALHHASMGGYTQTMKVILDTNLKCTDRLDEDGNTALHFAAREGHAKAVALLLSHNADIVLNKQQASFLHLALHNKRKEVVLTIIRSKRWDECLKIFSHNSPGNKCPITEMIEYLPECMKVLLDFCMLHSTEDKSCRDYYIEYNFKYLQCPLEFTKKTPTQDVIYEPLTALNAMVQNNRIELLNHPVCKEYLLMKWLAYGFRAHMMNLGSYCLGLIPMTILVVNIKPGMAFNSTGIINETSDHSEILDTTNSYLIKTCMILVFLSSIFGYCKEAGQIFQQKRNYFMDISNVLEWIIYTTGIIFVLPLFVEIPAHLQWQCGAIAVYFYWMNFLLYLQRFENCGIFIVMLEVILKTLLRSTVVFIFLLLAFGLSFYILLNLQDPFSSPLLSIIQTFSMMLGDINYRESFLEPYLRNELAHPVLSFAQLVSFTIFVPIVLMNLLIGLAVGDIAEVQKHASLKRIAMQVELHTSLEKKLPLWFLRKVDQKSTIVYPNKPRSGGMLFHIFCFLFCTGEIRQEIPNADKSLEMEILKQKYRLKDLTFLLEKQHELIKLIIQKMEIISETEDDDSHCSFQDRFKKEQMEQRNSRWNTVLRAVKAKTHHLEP
Type: cell-based
Compound `C#CC(C)(C)NC(=O)c1cc(OC(F)(F)F)ccc1NC` [Example 85, 2-(Methylamino)-N-(2-methylbut-3-yn-2-yl)-5-(trifluoromethoxy)-benzamide] has an IC50 of 13200 nM.
Compound `C#CC(C)(C)NC(=O)c1cc(Cl)cnc1NC(C)C` [Example 26, 5-Chloro-2-(isopropylamino)-N-(2-methylbut-3-yn-2-yl)-nicotinamide] has an IC50 of 3300 nM.
`C#CC(C)(CCC)NC(=O)c1cc(F)c(F)cc1NCC(C)C` (stereo not drawn) [Example 70, 4,5-Difluoro-2-(isobutylamino)-N-(3-methylhex-1-yn-3-yl)benzamide] showed an IC50 of 700 nM.
`C#CC(C)(C)NC(=O)c1cc(C#N)ccc1NC1CCC1` [Example 36, 5-Cyano-2-(cyclobutylamino)-N-(2-methylbut-3-yn-2-yl)benzamide] showed an IC50 of 4200 nM.
With `C#CC(C)(C)NC(=O)c1ccc(C(F)(F)F)nc1NC(C)C` [Example 106, 2-(Isopropylamino)-N-(2-methylbut-3-yn-2-yl)-6-(trifluoromethyl)-nicotinamide] the IC50 was 1300 nM.
With `C#CC(C)(C)NC(=O)c1cc(Cl)cnc1Nc1ccccc1` [Example 129, 5-Chloro-N-(2-methylbut-3-yn-2-yl)-2-(phenylamino)nicotinamide] the IC50 was 700 nM.
Work on `C#CC(C)(C)NC(=O)c1ccccc1NCC(C)(C)C` [Example 81, N-(2-Methylbut-3-yn-2-yl)-2-(neopentylamino)benzamide] yielded an IC50 of 1300 nM.
`C#CC(C)(C)NC(=O)c1cnc(C(F)(F)F)nc1NC(C)C` [Example 110, 4-(Isopropylamino)-N-(2-methylbut-3-yn-2-yl)-2-(trifluoromethyl)-pyrimidine-5-carboxamide] showed an IC50 of 12000 nM.
Work on `C#CC(C)(C)NC(=O)c1cc(C(F)(F)F)cnc1NC(C)C` [Example 28, 2-(Isopropylamino)-N-(2-methylbut-3-yn-2-yl)-5-(trifluoromethyl)-nicotinamide] yielded an IC50 of 1200 nM.
With `C#CC(C)(CC)NC(=O)c1cccnc1Nc1ccc(F)c(F)c1` (stereo not drawn) [Example 195, 2-(3,4-Difluorophenylamino)-N-(3-methylpent-1-yn-3-yl)nicotinamide] the IC50 was 100 nM.
Compound `C#CC(C)(C)NC(=O)c1cc(Cl)cnc1NCCC(F)F` [Example 60, 5-Chloro-2-(3,3-difluoropropylamino)-N-(2-methylbut-3-yn-2-yl)nicotinamide] has an IC50 of 1800 nM.
`C#CC(C)(C)NC(=O)c1cc(Cl)cnc1NC1CCC1` [Example 27, 5-Chloro-2-(cyclobutylamino)-N-(2-methylbut-3-yn-2-yl)nicotinamide] was tested, and the IC50 was 700 nM.
Work on `C#CC(C)(C)NC(=O)c1cc(Cl)ccc1NCC(F)F` [Example 5, 5-Chloro-2-(2,2-difluoroethylamino)-N-(2-methylbut-3-yn-2-yl)benzamide] yielded an IC50 of 5100 nM.
For `C#CC(C)(C)NC(=O)c1cccnc1Nc1ccc(F)cc1F` [Example 173, 2-(2,4-Difluorophenylamino)-N-(2-methylbut-3-yn-2-yl)nicotinamide], the IC50 was 1900 nM.
Compound `C#CC(C)(C)NC(=O)c1cccnc1Nc1ccc(OC)c(Cl)c1` [Example 150, 2-(3-Chloro-4-methoxyphenylamino)-N-(2-methylbut-3-yn-2-yl)nicotinamide] has an IC50 of 1900 nM.
For `C#CC(C)(C)NC(=O)c1ccc(Cl)nc1NCC` [Example 113, 6-Chloro-2-(ethylamino)-N-(2-methylbut-3-yn-2-yl)nicotinamide], the IC50 was 7200 nM.
`C#CC(C)(C)NC(=O)c1cc(F)cnc1Nc1cccc(F)c1` [Example 175, 5-Fluoro-2-(3-fluorophenylamino)-N-(2-methylbut-3-yn-2-yl)nicotinamide] gave an IC50 of 900 nM.
In the case of `C#CC(C)(C)NC(=O)c1cc(Br)ccc1NCCC` [Example 124, 5-Bromo-NV-(2-methylbut-3-yn-2-yl)-2-(propylamino)benzamide], the IC50 is reported as 500 nM.
Work on `C#CC(C)(CC)NC(=O)c1cc(Cl)cnc1NC1CC(F)(F)C1` (stereo not drawn) [Example 177, 5-Chloro-2-(3,3-difluorocyclobutylamino)-N-(3-methylpent-1-yn-3-yl)nicotinamide] yielded an IC50 of 300 nM.
Work on `C#CC(C)(CC)NC(=O)c1cc(F)cnc1NC1CC(F)(F)C1` (stereo not drawn) [Example 164, 2-(3,3-Difluorocyclobutylamino)-5-fluoro-N-(3-methylpent-1-yn-3-yl)nicotinamide] yielded an IC50 of 100 nM.
In the case of “5-Bromo-2-(ethylamino)-N-(2-methylbut-3-yn-2-yl)nicotinanilide [Example 153]”, the IC50 is reported as 10400 nM.
Compound `C#CC(C)(C)NC(=O)c1ccsc1NCCCC` [Example 130, 2-(Butylamino)-N-(2-methylbut-3-yn-2-yl)thiophene-3-carboxamide] has an IC50 of 2100 nM.
`C#CC(C)(C)NC(=O)c1cc(I)ccc1NCCOC` [Example 50, 5-Iodo-2-(2-methoxyethylamino)-N-(2-methylbut-3-yn-2-yl)benzamide] gave an IC50 of 5800 nM.
For `C#CC(C)(C)NC(=O)c1cnc(C(F)(F)F)nc1NC(C)(C)C` [Example 108, 4-(tert-Butylamino)-N-(2-methylbut-3-yn-2-yl)-2-(trifluoromethyl)pyrimidine-5-carboxamide], the IC50 was 5000 nM.
For `C#CC(C)(C)NC(=O)c1cc(F)cnc1NCC(C)(F)F` [Example 57, 2-(2,2-Difluoropropylamino)-5-fluoro-N-(2-methylbut-3-yn-2-yl)nicotinamide], the IC50 was 4700 nM.
`C#CC(C)(C)NC(=O)c1cccnc1Nc1cccc(OC)c1F` [Example 169, 2-(2-Fluoro-3-methoxyphenylamino)-N-(2-methylbut-3-yn-2-yl)nicotinamide] was tested, and the IC50 was 34800 nM.
`C#CC(C)(C)NC(=O)c1cccnc1NC1CC(F)(F)C1` [Example 133, 2-(3,3-Difluorocyclobutylamino)-N-(2-methylbut-3-yn-2-yl)nicotinamide] showed an IC50 of 5900 nM.
`C#CC(C)(C)NC(=O)c1cscc1NCCC` [Example 126, N-(2-Methylbut-3-yn-2-yl)-4-(propylamino)thiophene-3-carboxamide] gave an IC50 of 8000 nM.
`C#CC(C)(C)NC(=O)c1cc(C(F)(F)F)ccc1NCCOC` [Example 48, 2-(2-Methoxyethylamino)-N-(2-methylbut-3-yn-2-yl)-5-(trifluoromethyl)benzamide] was tested, and the IC50 was 5700 nM.
`C#CC(C)(C)NC(=O)c1ccc(OC)cc1NCCC` [Example 74, 4-Methoxy-N-(2-methylbut-3-yn-2-yl)-2-(propylamino)benzamide] gave an IC50 of 7000 nM.
`C#CC(C)(CC)NC(=O)c1cccnc1Nc1cccc(F)c1` (stereo not drawn) [Example 184, 2-(3-Fluorophenylamino)-N-(3-methylpent-1-yn-3-yl)nicotinamide] showed an IC50 of 200 nM.
For `C#CC(C)(C)NC(=O)c1cccnc1Nc1ccc(F)c(OC)c1` [Example 193, 2-(4-Fluoro-3-methoxyphenylamino)-N-(2-methylbut-3-yn-2-yl)nicotinamide], the IC50 was 11100 nM.
`C#CC(C)(C)NC(=O)c1cc(Cl)cnc1NCCC(F)(F)F` [Example 41, 5-Chloro-N-(2-methylbut-3yn-2-yl)-2-(3,3,3-trifluoropropylamino)-nicotinamide] was tested, and the IC50 was 500 nM.
With `C#CC(C)(C)NC(=O)c1cc(Cl)cnc1NCCOCC` [Example 148, 5-Chloro-2-(2-ethoxyethylamino)-N-(2-methylbut-3-yn-2-yl)nicotinamide] the IC50 was 14900 nM.
`C#CC(C)(NC(=O)c1cc(F)c(F)cc1NCC(C)C)C(C)C` (stereo not drawn) [Example 69, N-(3,4-Dimethylpent-1-yn-3-yl)-4,5-difluoro-2-(isobutylamino)-benzamide] gave an IC50 of 300 nM.
`C#CC(C)(C)NC(=O)c1cc(Cl)ccc1NCC(F)(F)F` [Example 14, 5-Chloro-N-(2-methylbut-3-yn-2-yl)-2-(2,2,2-trifluoroethylamino)-benzamide] was tested, and the IC50 was 1200 nM.
Work on `C#CC(C)(C)NC(=O)c1cc(F)cnc1NCCCOc1ccc(F)cc1` [Example 144, 5-Fluoro-2-(3-(4-fluorophenoxy)propylamino)-N-(2-methylbut-3-yn-2-yl)nicotinamide] yielded an IC50 of 2600 nM.
With `C#CC(C)(C)NC(=O)c1cncnc1Nc1ccc(C(F)(F)F)cc1` [Example 161, N-(2-Methylbut-3-yn-2-yl)-4-(4-(trifluoromethyl)phenylamino)-pyrimidine-5-carboxamide] the IC50 was 1300 nM.
For `C#CC(C)(C)NC(=O)c1cc(F)cnc1Nc1ccccc1` [Example 160, 5-Fluoro-N-(2-methylbut-3-yn-2-yl)-2-(phenylamino)nicotinamide], the IC50 was 1400 nM.
`C#CC(C)(C)NC(=O)c1ccccc1NCCCC` [Example 64, 2-(Butylamino)-N-(2-methylbut-3-yn-2-yl)benzamide] showed an IC50 of 1500 nM.
`C#CC(C)(C)NC(=O)c1cncnc1NCC(F)(F)C(F)(F)F` [Example 132, N-(2-Methylbut-3-yn-2-yl)-4-(2,2,3,3,3-pentafluoropropylamino)-pyrimidine-5-carboxamide] gave an IC50 of 13800 nM.
`C#CC(C)(CC(C)C)NC(=O)c1cc(F)c(F)cc1NCC(C)C` (stereo not drawn) [Example 68, N-(3,5-Dimethylhex-1-yn-3-yl)-4,5-difluoro-2-(isobutylamino)-benzamide] was tested, and the IC50 was 1100 nM.
`C#CC(C)(C)NC(=O)c1ccc(C(F)(F)F)nc1NCC1CCOCC1` [Example 116, N-(2-Methylbut-3-yn-2-yl)-2-((tetrahydro-2H-pyran-4-yl)methyl-amino)-6-(trifluoromethyl)nicotinamide] gave an IC50 of 1600 nM.
Work on `C#CC(C)(C)NC(=O)c1sccc1NCC(C)C` [Example 136, 3-(Isobutylamino)-N-(2-methylbut-3-yn-2-yl)thiophene-2-carboxamide] yielded an IC50 of 8700 nM.
`C#CC(C)(CC)NC(=O)c1cccnc1Nc1ccc(Cl)c(OC)c1` (stereo not drawn) [Example 197, 2-(4-Chloro-3-methoxyphenylamino)-N-(3-methylpent-1-yn-3-yl)nicotinamide] gave an IC50 of 700 nM.
`C#CC(C)(C)NC(=O)c1cc2c(cc1NCC(C)C)OCO2` [Example 7, 6-(Isobutylamino)-N-(2-methylbut-3-yn-2-yl)benzo[d][1,3]dioxole-5-carboxamide] gave an IC50 of 2900 nM.
With `C#CC(C)(C)NC(=O)c1cc(OC(F)(F)F)ccc1NCCC(F)(F)F` [Example 75, N-(2-Methylbut-3-yn-2-yl)-5-(trifluoromethoxy)-2-(3,3,3-trifluoropropylamino)benzamide] the IC50 was 700 nM.
Compound `C#CC(C)(CC)NC(=O)c1cccnc1Nc1ccc(F)c(C#N)c1` (stereo not drawn) [Example 182, 2-(3-Cyano-4-fluorophenylamino)-N-(3-methylpent-1-yn-3-yl)nicotinamide] has an IC50 of 500 nM.
